Measurements from US11427549B2, “Pyrimidinyloxy benzo-fused compounds as herbicides” (FMC Corporation, priority 2017, dated 2022).

How the values were obtained:
[1] = system: ryegrass, Italian (Italian ryegrass, Lolium multiflorum); assay: Test A preemergence, ryegrass, Italian; assay type: in vivo; conditions: Lolium multiflorum, pre-emergence, 240 h, 0 to 100 scale (0 no effect, 100 complete control), read-out: Plant response rating, Ryegrass, Italian; for pest or weed control at 31 g/ha: 31 g ai/ha; for pest or weed control at 125 g/ha: 125 g ai/ha
[2] = system: pigweed (Amaranthus retroflexus); assay: Test A postemergence, pigweed; assay type: in vivo; conditions: Amaranthus retroflexus, post-emergence, 240 h, 0 to 100 scale (0 no effect, 100 complete control), read-out: Plant response rating, Pigweed; for pest or weed control at 31 g/ha: 31 g ai/ha; for pest or weed control at 125 g/ha: 125 g ai/ha
[3] = system: ragweed (common ragweed, Ambrosia elatior); assay: Test A preemergence, ragweed; assay type: in vivo; conditions: Ambrosia artemisiifolia, pre-emergence, 240 h, 0 to 100 scale (0 no effect, 100 complete control), read-out: Plant response rating, Ragweed; for pest or weed control at 31 g/ha: 31 g ai/ha; for pest or weed control at 125 g/ha: 125 g ai/ha
corn (Zea mays) = assay: Test A postemergence, corn; assay type: in vivo; conditions: Zea mays, post-emergence, 240 h, 0 to 100 scale (0 no effect, 100 complete control); for Corn plant response rating (crop injury, 0 = no effect, 100 = complete kill) at 31 g/ha: 31 g ai/ha; for Corn plant response rating (crop injury, 0 = no effect, 100 = complete kill) at 125 g/ha: 125 g ai/ha
[4] = system: barnyardgrass (Echinochloa crus-galli); assay: Test A preemergence, barnyardgrass; assay type: in vivo; conditions: Echinochloa crus-galli, pre-emergence, 240 h, 0 to 100 scale (0 no effect, 100 complete control), read-out: Plant response rating, Barnyardgrass; for pest or weed control at 31 g/ha: 31 g ai/ha; for pest or weed control at 125 g/ha: 125 g ai/ha
[5] = system: pigweed (Amaranthus retroflexus); assay: Test A preemergence, pigweed; assay type: in vivo; conditions: Amaranthus retroflexus, pre-emergence, 240 h, 0 to 100 scale (0 no effect, 100 complete control), read-out: Plant response rating, Pigweed; for pest or weed control at 31 g/ha: 31 g ai/ha; for pest or weed control at 125 g/ha: 125 g ai/ha
[6] = system: barnyardgrass (Echinochloa crus-galli); assay: Test A postemergence, barnyardgrass; assay type: in vivo; conditions: Echinochloa crus-galli, post-emergence, 240 h, 0 to 100 scale (0 no effect, 100 complete control), read-out: Plant response rating, Barnyardgrass; for pest or weed control at 31 g/ha: 31 g ai/ha; for pest or weed control at 125 g/ha: 125 g ai/ha
[7] = system: ragweed (common ragweed, Ambrosia elatior); assay: Test A postemergence, ragweed; assay type: in vivo; conditions: Ambrosia artemisiifolia, post-emergence, 240 h, 0 to 100 scale (0 no effect, 100 complete control), read-out: Plant response rating, Ragweed; for pest or weed control at 31 g/ha: 31 g ai/ha; for pest or weed control at 125 g/ha: 125 g ai/ha
[8] = system: ryegrass, Italian (Italian ryegrass, Lolium multiflorum); assay: Test A postemergence, ryegrass, Italian; assay type: in vivo; conditions: Lolium multiflorum, post-emergence, 240 h, 0 to 100 scale (0 no effect, 100 complete control), read-out: Plant response rating, Ryegrass, Italian; for pest or weed control at 31 g/ha: 31 g ai/ha; for pest or weed control at 125 g/ha: 125 g ai/ha
[9] = system: barnyardgrass (Echinochloa crus-galli); assay: Test B flooded paddy test, barnyardgrass; conditions: Echinochloa crus-galli, read-out: Plant response rating, Barnyardgrass (0 to 100 scale, 0 is no effect, 100 is complete control)
[10] = system: galium (catchweed bedstraw, Galium aparine); assay: Test A postemergence, galium; assay type: in vivo; conditions: Galium, post-emergence, 240 h, 0 to 100 scale (0 no effect, 100 complete control), read-out: Plant response rating, Galium; for pest or weed control at 31 g/ha: 31 g ai/ha; for pest or weed control at 125 g/ha: 125 g ai/ha
[11] = system: wheat (Triticum aestivum); assay: Test A postemergence, wheat; assay type: in vivo; conditions: Triticum aestivum, post-emergence, 240 h, 0 to 100 scale (0 no effect, 100 complete control), read-out: Plant response rating, Wheat; for plant injury at 31 g/ha: 31 g ai/ha; for plant injury at 125 g/ha: 125 g ai/ha
kochia (Kochia scoparia) [12] = assay: Test A preemergence, kochia; assay type: in vivo; conditions: Bassia scoparia, pre-emergence, 240 h, 0 to 100 scale (0 no effect, 100 complete control), read-out: Plant response rating, Kochia; for pest or weed control at 31 g/ha: 31 g ai/ha; for pest or weed control at 125 g/ha: 125 g ai/ha
rice (Oryza sativa) = assay: Test B flooded paddy test, rice; conditions: Oryza sativa, read-out: Plant response rating, Rice (0 to 100 scale, 0 is no effect, 100 is complete control)
[13] = system: ducksalad (Heteranthera limosa); assay: Test B flooded paddy test, ducksalad; conditions: Heteranthera limosa, read-out: Plant response rating, Ducksalad (0 to 100 scale, 0 is no effect, 100 is complete control)
[14] = system: blackgrass (Alopecurus myosuroides); assay: Test A postemergence, blackgrass; assay type: in vivo; conditions: Alopecurus myosuroides, post-emergence, 240 h, 0 to 100 scale (0 no effect, 100 complete control), read-out: Plant response rating, Blackgrass; for pest or weed control at 31 g/ha: 31 g ai/ha; for pest or weed control at 125 g/ha: 125 g ai/ha
kochia (Kochia scoparia) [15] = assay: Test A postemergence, kochia; assay type: in vivo; conditions: Bassia scoparia, post-emergence, 240 h, 0 to 100 scale (0 no effect, 100 complete control), read-out: Plant response rating, Kochia; for pest or weed control at 31 g/ha: 31 g ai/ha; for pest or weed control at 125 g/ha: 125 g ai/ha

Row | SMILES | pest or weed control at 31 g/ha [1] [%] | pest or weed control at 125 g/ha [1] [%] | pest or weed control at 31 g/ha [2] [%] | pest or weed control at 125 g/ha [2] [%] | pest or weed control at 31 g/ha [3] [%] | pest or weed control at 125 g/ha [3] [%] | Corn plant response rating (crop injury, 0 = no effect, 100 = complete kill) at 31 g/ha (corn (Zea mays)) [%] | Corn plant response rating (crop injury, 0 = no effect, 100 = complete kill) at 125 g/ha (corn (Zea mays)) [%] | pest or weed control at 31 g/ha [4] [%] | pest or weed control at 125 g/ha [4] [%] | pest or weed control at 31 g/ha [5] [%] | pest or weed control at 125 g/ha [5] [%] | pest or weed control at 31 g/ha [6] [%] | pest or weed control at 125 g/ha [6] [%] | pest or weed control at 31 g/ha [7] [%] | pest or weed control at 125 g/ha [7] [%] | pest or weed control at 31 g/ha [8] [%] | pest or weed control at 125 g/ha [8] [%] | pest or weed control at 250 g/ha [9] [%] | pest or weed control at 31 g/ha [10] [%] | further results
1 | O=C1O[C@@H](CCC(F)(F)F)c2c(Oc3ncc(Cl)cn3)cccc21 [Compound 18, (3S)-4-[(5-Chloro-2-pyrimidinyl)oxy]-3-(3,3,3-trifluoropropyl)-1(3H)-isobenzofuranone] | 0 | 0 | 10 | 20 | 0 | 0 | 0 | 10 | 0 | 0 | 0 | 0 | 0 | 0 | 0 | 0 | 0 | 0 | 0 | 0 | pest or weed control at 125 g/ha [10]: 10%; plant injury at 31 g/ha [11]: 0%; plant injury at 125 g/ha [11]: 0%; pest or weed control at 31 g/ha (kochia (Kochia scoparia) [12]): 0%; pest or weed control at 125 g/ha (kochia (Kochia scoparia) [12]): 0%; plant injury at 250 g/ha (rice (Oryza sativa)): 0%; pest or weed control at 250 g/ha [13]: 0%; pest or weed control at 31 g/ha [14]: 0%; pest or weed control at 125 g/ha [14]: 0%; pest or weed control at 31 g/ha (kochia (Kochia scoparia) [15]): 0%; pest or weed control at 125 g/ha (kochia (Kochia scoparia) [15]): 10%
2 | O=C1CCC(CCCC(F)(F)F)c2c(Oc3ncc(Cl)cn3)cccc21 (stereo not shown) [Compound 30, 5-[(5-Chloro-2-pyrimidinyl)oxy]-3,4-dihydro-4-(4,4,4-trifluorobutyl)-1(2H)-naphthalenone] | 0 | 10 | 70 | 90 | 0 | 0 | 30 | 30 | 0 | 40 | 10 | 60 | 20 | 30 | 10 | 10 | 30 | 30 | 20 | 30 | pest or weed control at 125 g/ha [10]: 80%; plant injury at 31 g/ha [11]: 0%; plant injury at 125 g/ha [11]: 20%; pest or weed control at 31 g/ha (kochia (Kochia scoparia) [12]): 0%; pest or weed control at 125 g/ha (kochia (Kochia scoparia) [12]): 0%; plant injury at 250 g/ha (rice (Oryza sativa)): 0%; pest or weed control at 250 g/ha [13]: 85%; pest or weed control at 31 g/ha [14]: 20%; pest or weed control at 125 g/ha [14]: 60%; pest or weed control at 31 g/ha (kochia (Kochia scoparia) [15]): 10%; pest or weed control at 125 g/ha (kochia (Kochia scoparia) [15]): 30%
3 | O=C1c2cccc(Oc3ncc(Cl)cn3)c2C1CCCC(F)(F)F (stereo not shown) [Compound 22, 2-[(5-Chloro-2-pyrimidinyl)oxy]-8-(4,4,4-trifluorobutyl)bicyclo[4.2.0]octa-1,3,5-trien-7-one] | 0 | 20 | 30 | 80 | 0 | 0 | 20 | 30 | 0 | 60 | 0 | 30 | 20 | 40 | 0 | 20 | 30 | 20 | 35 | 50 | pest or weed control at 125 g/ha [10]: 80%; plant injury at 31 g/ha [11]: 0%; plant injury at 125 g/ha [11]: 0%; pest or weed control at 31 g/ha (kochia (Kochia scoparia) [12]): 20%; pest or weed control at 125 g/ha (kochia (Kochia scoparia) [12]): 80%; plant injury at 250 g/ha (rice (Oryza sativa)): 0%; pest or weed control at 250 g/ha [13]: 80%; pest or weed control at 31 g/ha [14]: 0%; pest or weed control at 125 g/ha [14]: 50%; pest or weed control at 31 g/ha (kochia (Kochia scoparia) [15]): 40%; pest or weed control at 125 g/ha (kochia (Kochia scoparia) [15]): 80%
4 | O=C1OCc2cccc(Oc3ncc(Cl)cn3)c2C1CCCCC(F)(F)F (stereo not shown) [Compound 34, 5-[(5-Chloro-2-pyrimidinyl)oxy]-1,4-dihydro-4-(5,5,5-trifluoropentyl)-3H-2-benzopyran-3-one] | 0 | 0 | 10 | 40 | 0 | 0 | 10 | 20 | 0 | 0 | 0 | 0 | 0 | 10 | 0 | 0 | 0 | 0 | 0 | 20 | pest or weed control at 125 g/ha [10]: 50%; plant injury at 31 g/ha [11]: 0%; plant injury at 125 g/ha [11]: 10%; pest or weed control at 31 g/ha (kochia (Kochia scoparia) [12]): 0%; pest or weed control at 125 g/ha (kochia (Kochia scoparia) [12]): 0%; plant injury at 250 g/ha (rice (Oryza sativa)): 0%; pest or weed control at 250 g/ha [13]: 0%; pest or weed control at 31 g/ha [14]: 0%; pest or weed control at 125 g/ha [14]: 10%; pest or weed control at 31 g/ha (kochia (Kochia scoparia) [15]): 20%; pest or weed control at 125 g/ha (kochia (Kochia scoparia) [15]): 10%
